Series [1] deals with T1, endogenous CD38 in HL60 cells (Homo sapiens, UniProt P28907).
T1 construct: endogenous in cells; host or cells: HL60 (leukemic cells, treated with all-trans retinoic acid)
T1 sequence (P28907 1-300): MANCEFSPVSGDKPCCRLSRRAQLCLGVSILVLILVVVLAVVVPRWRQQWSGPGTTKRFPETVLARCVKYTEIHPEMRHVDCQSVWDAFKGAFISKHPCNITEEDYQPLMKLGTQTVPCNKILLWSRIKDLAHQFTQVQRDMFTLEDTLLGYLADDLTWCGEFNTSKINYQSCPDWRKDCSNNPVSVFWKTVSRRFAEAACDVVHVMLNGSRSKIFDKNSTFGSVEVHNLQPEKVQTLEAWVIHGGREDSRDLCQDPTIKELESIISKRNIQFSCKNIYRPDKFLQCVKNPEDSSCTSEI
Description: cellular CD38 assay in HL60 cells (cellular NAD levels). The class given is cell-based. Conditions: all-trans retinoic acid, 24 hours, read-out: hCD38 HL60 ATRA NAD Cell Diaphorase IC50. In a few lines: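 HL60 cells (20000/well) were treated with compound in DMSO for 24 h. Cellular NAD was then measured by an enzymatic cycling mix (alcohol dehydrogenase, diaphorase, 40 uM resazurin, 10 uM FMN, 3% ethanol, Triton X-100, pH 8.4).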

In the next series the target is T2, mouse CD38 (Mus musculus, UniProt P56528).
T2 sequence (P56528 1-304): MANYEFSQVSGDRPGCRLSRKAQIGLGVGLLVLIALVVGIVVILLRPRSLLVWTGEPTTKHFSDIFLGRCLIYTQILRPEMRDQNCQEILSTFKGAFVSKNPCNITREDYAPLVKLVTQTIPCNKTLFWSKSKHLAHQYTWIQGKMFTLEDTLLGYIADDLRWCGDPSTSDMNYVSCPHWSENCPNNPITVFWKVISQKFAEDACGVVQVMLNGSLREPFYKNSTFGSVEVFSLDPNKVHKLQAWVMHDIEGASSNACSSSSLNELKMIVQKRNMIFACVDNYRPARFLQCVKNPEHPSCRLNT
Description: mouse recombinant CD38 enzyme assay (hydrolysis of NAD+). It is filed as biochemical. As to conditions: read-out: mCD38 BioChem IC50. In a few lines: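 Recombinant human or mouse CD38 hydrolyzing NAD+ in a cell-free buffered system. Dose-responses were run for 60 min at ambient temperature. Remaining NAD+ was converted to NADH by alcohol dehydrogenase, which drove diaphorase reduction of resazurin to resorufin, read at 540/590 nm.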

Series [2] concerns human hepatic cytochrome P450 isozymes (CYP1A2, 2B6, 2C8, 2C9, 2C19, 2D6, and 3A4). Description: time dependent inhibition, statement over all isozymes tested. The class given is in vitro ADME. Conditions: any isozymes; pooled human microsomes; no indication of time dependent inhibition. How it is done: Time dependent inhibition: An assessment of the time-dependent Inhibitory potential of test compounds against the principal human cytochrome P450 isozymes was carried out using standard methods (Grimm et al, “The Conduct of in Vitro Studies to Address Time-Dependent Inhibition of Drug-Metabolizing Enzymes: A Perspective of the Pharmaceutical Research and Manufacturers of America”, Drug Metabolism and Disposition, 37 (7): 1355, 2009). […] Each compound was pre-incubated at 37° C. plus and minus NADPH for 30 min, and with 0 min pre-incubation for assessment of potential time dependent inhibition. LC-MS/MS was used to quantify metabolite formation. […] Note that, in Tables 8 and 9, the “Compound No” corresponds to the compound numbers in Table 1.

The next series addresses T3, CYP3A4 (Homo sapiens, UniProt P08684).
T3 construct: from tissue; host or cells: human liver microsomes (pooled in the time-dependent assay)
The series can be described thus: direct inhibition of CYP450 in human liver microsomes (midazolam and testosterone probes). It is filed as in vitro ADME. The protocol:
(§1) Direct inhibition: […] A Perspective of the Pharmaceutical Research and Manufacturers of America”, Drug Metabolism and Disposition, 37 (7): 1355, 2009). For 3A4, the % activity was measured using both midazolam and testosterone as probes. Each compound at 3, 10, and 50 μM was incubated with HLM, NADPH and CYP isoenzyme specific probe substrates at 37° C. Inhibition of the probe substrate metabolism was quantified using LC/MS/MS. […] Known chemical inhibitors specific for the individual CYP isoenzymes were evaluated in parallel as positive controls and these compounds produced CYP inhibition consistent with published results (Walsky & Obach RS. “Validated assays for human cytochrome P450 activities”. Drug Metab Dispos. 32(6):647-60, 2004). Note that, in Tables 6 and 7, the “Compound No” corresponds to the compound numbers in Table 1.

Another series addresses T4, CYP2D6 (Homo sapiens, UniProt P10635).
T4 construct: from tissue; host or cells: human liver microsomes (pooled in the time-dependent assay)
The series can be described thus: direct inhibition of CYP450 in human liver microsomes. The class given is in vitro ADME. As to conditions: for activity at 3 µM / activity at 10 µM / activity at 50 µM: % of non-inhibited control, read-out: CYP2D6 T0 % activity; for IC50: estimated from 3, 10, 50 uM, read-out: CYP2D6 T0 estimated IC50. How it is done:
as §1

The mark [3] stands for this setting: midazolam probe, read-out: CYP3A4-M T0 % activity.
Setting [4] is: testosterone probe, read-out: CYP3A4-T T0 % activity.
Where [5] appears, read: midazolam probe, read-out: CYP3A4-M T0 estimated IC50.
[6] abbreviates: testosterone probe, read-out: CYP3A4-T T0 estimated IC50.

Read-outs that look alike come from different tables or passages of the source. Where only a bound is given, the exact number is not on record here.

We go through seven compounds from US20230116972A1, “CD38 MODULATORS AND METHODS OF USE THEREOF” (Cytokinetics, Inc., priority 2021, published 2023).

T3 sequence (P08684 whole entry): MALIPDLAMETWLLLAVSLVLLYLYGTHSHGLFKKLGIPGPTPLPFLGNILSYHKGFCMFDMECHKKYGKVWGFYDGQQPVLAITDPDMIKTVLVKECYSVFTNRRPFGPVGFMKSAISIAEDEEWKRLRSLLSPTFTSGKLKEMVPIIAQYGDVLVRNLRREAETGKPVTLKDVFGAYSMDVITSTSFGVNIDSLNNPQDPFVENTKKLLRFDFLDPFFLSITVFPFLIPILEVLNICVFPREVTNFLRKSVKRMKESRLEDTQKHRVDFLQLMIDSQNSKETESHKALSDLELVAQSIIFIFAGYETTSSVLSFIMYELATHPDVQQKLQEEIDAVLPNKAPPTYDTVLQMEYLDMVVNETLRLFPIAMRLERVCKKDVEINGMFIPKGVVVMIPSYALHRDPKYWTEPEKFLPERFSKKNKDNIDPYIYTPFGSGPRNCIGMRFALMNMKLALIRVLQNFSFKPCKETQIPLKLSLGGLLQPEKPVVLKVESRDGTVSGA
T4 sequence (P10635 whole entry): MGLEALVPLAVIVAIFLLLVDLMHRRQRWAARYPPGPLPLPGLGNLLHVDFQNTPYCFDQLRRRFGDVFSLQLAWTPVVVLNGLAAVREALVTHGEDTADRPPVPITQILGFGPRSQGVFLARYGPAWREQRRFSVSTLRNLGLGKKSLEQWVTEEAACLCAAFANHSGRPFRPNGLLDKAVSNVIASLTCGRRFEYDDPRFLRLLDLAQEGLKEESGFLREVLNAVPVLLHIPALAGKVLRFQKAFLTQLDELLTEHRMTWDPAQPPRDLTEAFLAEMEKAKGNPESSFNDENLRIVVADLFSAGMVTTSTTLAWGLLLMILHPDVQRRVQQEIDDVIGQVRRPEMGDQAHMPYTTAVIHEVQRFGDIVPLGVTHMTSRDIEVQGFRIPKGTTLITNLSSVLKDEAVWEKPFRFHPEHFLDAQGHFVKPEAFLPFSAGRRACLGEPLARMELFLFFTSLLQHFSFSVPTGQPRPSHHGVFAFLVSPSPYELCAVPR

Turning to `CO[C@H]1CC[C@H](NC(=O)c2nccc(-c3cncn3C)n2)CC1` [Compound 148, N-((1r,4r)-4-methoxycyclohexyl)-4-(1-methyl-1H-imidazol-5-yl)pyrimidine-2-carboxamide], the IC50 in series [1] turned out to be 1890 nM; at mouse CD38, 23 nM. In addition, the “IC50 fold shift between 30 min pre-incubation plus NADPH and 0 min preincubation” value in series [2] was at most 1.5 fold.

`CO[C@H]1CC[C@H](NC(=O)c2cc(C3CCOCC3)nc(-c3cncn3C)n2)CC1` [Compound 199, N-((1r,4r)-4-methoxycyclohexyl)-2-(1-methyl-1H-imidazol-5-yl)-6-(tetrahydro-2H-pyran-4-yl)pyrimidine-4-carboxamide]: the IC50 in series [1] was 2630 nM; on CYP3A4 (setting [5]), over 50 µM; on CYP3A4 (setting [6]) it was over 50 µM; at mouse CD38 it was 3.1 nM. The activity at 3 µM at CYP3A4 (setting [3]) stood at 93%; on CYP3A4 (setting [4]), 98%. Also, the activity at 10 µM on CYP3A4 (setting [3]) is 92%; at CYP3A4 (setting [4]), 96%. The activity at 50 µM on CYP3A4 (setting [3]) and on CYP3A4 (setting [4]) was 79% each time.

As to `CC(C)(O)c1ccc(NC(=O)c2nccc(-n3ccnc3)n2)cn1` [Compound 249, N-(6-(2-hydroxypropan-2-yl)pyridin-3-yl)-4-(1H-imidazol-1-yl)pyrimidine-2-carboxamide], the IC50 was 838 nM in series [1]; over 50 µM on CYP2D6; over 50 µM on CYP3A4 (setting [5]); over 50 µM on CYP3A4 (setting [6]); 45.2 nM on mouse CD38. The activity at 3 µM at CYP2D6 was determined as 104%; on CYP3A4 (setting [3]), 108%; on CYP3A4 (setting [4]), 99%. The activity at 10 µM at CYP2D6 came to 103%; at CYP3A4 (setting [3]) it was 103%; at CYP3A4 (setting [4]) it was 100%. The activity at 50 µM on CYP2D6 amounted to 87%; on CYP3A4 (setting [3]) it was 100%; on CYP3A4 (setting [4]), 92%.

As for `Cn1cncc1-c1ccnc(C(=O)Nc2ccc(C(C)(C)O)nc2)n1` [Compound 250, N-(6-(2-hydroxypropan-2-yl)pyridin-3-yl)-4-(1-methyl-1H-imidazol-5-yl)pyrimidine-2-carboxamide], the IC50 was 924 nM in series [1]; under 50 µM at CYP2D6; over 50 µM at CYP3A4 (setting [5]); over 50 µM at CYP3A4 (setting [6]); 32 nM on mouse CD38. Further, the activity at 3 µM at CYP2D6 turned out to be 103%; on CYP3A4 (setting [3]), 96%; on CYP3A4 (setting [4]), 104%. For the same compound, the activity at 10 µM amounted to 86% on CYP2D6, 89% on CYP3A4 (setting [3]) and 106% on CYP3A4 (setting [4]). In addition, the activity at 50 µM at CYP2D6 was 47%; at CYP3A4 (setting [3]), 73%; on CYP3A4 (setting [4]), 85%.

`Cn1cncc1-c1ccnc(C(=O)N[C@H]2CC[C@H](O)CC2)n1` [Compound 256, N-((1r,4r)-4-hydroxycyclohexyl)-4-(1-methyl-1H-imidazol-5-yl)pyrimidine-2-carboxamide]: the IC50 in series [1] was 3610 nM; at CYP2D6, over 50 µM; at CYP3A4 (setting [5]), over 50 µM; at CYP3A4 (setting [6]) it was over 50 µM; on mouse CD38 it was 22.5 nM. In addition, the activity at 3 µM came to 89% at CYP2D6, 88% at CYP3A4 (setting [3]) and 96% at CYP3A4 (setting [4]). Further, the activity at 10 µM on CYP2D6 is 87%; on CYP3A4 (setting [3]), 97%; on CYP3A4 (setting [4]), 99%. In addition, the activity at 50 µM turned out to be 56% on CYP2D6, 82% on CYP3A4 (setting [3]) and 95% on CYP3A4 (setting [4]).

As to `CO[C@H]1CC[C@H](NC(=O)c2cc(C3CCC(F)(F)CC3)nc(-c3cncn3C)n2)CC1` [Compound 289, 6-(4,4-difluorocyclohexyl)-N-((1r,4r)-4-methoxycyclohexyl)-2-(1-methyl-1H-imidazol-5-yl)pyrimidine-4-carboxamide], the 50% inhibitory concentration (IC50) in series [1] was 1900 nM; at CYP2D6, over 50 µM; at CYP3A4 (setting [5]), over 50 µM; at CYP3A4 (setting [6]), over 50 µM; on mouse CD38, 1 nM. Also, the activity at 3 µM was 98% on CYP2D6, 147% on CYP3A4 (setting [3]) and 100% on CYP3A4 (setting [4]). The activity at 10 µM at CYP2D6 turned out to be 98%; at CYP3A4 (setting [3]), 148%; at CYP3A4 (setting [4]), 97%. Moreover, the activity at 50 µM at CYP2D6 turned out to be 64%; at CYP3A4 (setting [3]), 96%; at CYP3A4 (setting [4]), 72%.

As to `CO[C@H]1CC[C@H](NC(=O)c2cc(C3(C)COC3)nc(-c3cncn3C)n2)CC1` [Compound 295, N-((1r,4r)-4-methoxycyclohexyl)-2-(1-methyl-1H-imidazol-5-yl)-6-(3-methyloxetan-3-yl)pyrimidine-4-carboxamide], the IC50 in series [1] is 2310 nM; at CYP2D6, under 50 µM; on CYP3A4 (setting [5]) it was over 50 µM; on CYP3A4 (setting [6]) it was over 50 µM; on mouse CD38 it was 3.6 nM. Moreover, the results for the activity at 3 µM at CYP2D6, at CYP3A4 (setting [3]) and at CYP3A4 (setting [4]) were 95%, 92% and 103%, respectively. The activity at 10 µM was found to be 79% on CYP2D6, 93% at CYP3A4 (setting [3]) and 106% at CYP3A4 (setting [4]). Also, the activity at 50 µM at CYP2D6 was 36%; at CYP3A4 (setting [3]) it was 101%; on CYP3A4 (setting [4]) it was 86%.

One may read the IC50 as the point on the concentration scale where inhibition reaches its midpoint.
